Reference: paper PMC5513091, “A novel Alzheimer’s disease drug candidate targeting inflammation and fatty acid metabolism” (Alzheimer's Research & Therapy, 2017)

System: cortex metabolites
Assay: Metabolomic analysis of cortex
Assay type: in vivo, mice
Experimental: Metabolomic analyses were conducted at Metabolon (Durham, NC, USA) as described previously. For statistical analyses and data display, any missing values were assumed to be below the limits of detection and imputed with the compound minimum (minimum value imputation). An estimate of the FDR (Q value) was calculated to take into account the multiple comparisons that normally occur in metabolomics-based studies, with Q < 0.05 used as an indication of high confidence in a result. The MetaboAnalyst tool was used to generate heat maps.

Structure (SMILES): Cc1ccc(N(/N=C/c2cccc(OC(F)(F)F)c2)C(=O)C(F)(F)F)c(C)c1 [CAD-31]
- monoacylglycerols in brain (AD mice, only significant drug effect): an increase in monoacylglycerols
- Long-chain fatty acids and monoacylglycerols in brain (WT mice): decreased
- acetyl-CoA, ketone bodies, and acyl carnitines in brain (WT mice): increased
- ergothioneine Fold Change (cortex, AD+31/AD, p-value 8.4373e-5): 0.57
- N-acetylalanine Fold Change (cortex, AD+31/AD, p-value 0.0006): 0.84
- glycerate Fold Change (cortex, AD+31/AD, p-value 0.0086): 0.65
- 2-oleoylglycerol (18:1) Fold Change (cortex, AD+31/AD, p-value 0.0105): 1.51
- 1-palmitoylglycerol (16:0) Fold Change (cortex, AD+31/AD, p-value 0.0153): 1.41
- 2-methylcitrate/homocitrate Fold Change (cortex, AD+31/AD, p-value 0.0221): 1.13
- hypoxanthine Fold Change (cortex, AD+31/AD, p-value 0.0231): 0.89
- N-acetylneuraminate Fold Change (cortex, AD+31/AD, p-value 0.0277): 0.85
- 2-palmitoylglycerol (16:0) Fold Change (cortex, AD+31/AD, p-value 0.031): 1.57
- 1-palmitoyl-GPG (16:0)* Fold Change (cortex, AD+31/AD, p-value 0.0317): 1.85
- azelate (nonanedioate) Fold Change (cortex, AD+31/AD, p-value 0.0374): 0.73
- ribose Fold Change (cortex, AD+31/AD, p-value 0.0378): 0.84
- arachidate (20:0) Fold Change (cortex, AD+31/AD, p-value 0.0406): 1.47
- N-delta-acetylornithine Fold Change (cortex, AD+31/AD, p-value 0.0407): 1.32
- 3-sulfo-nervonoyl-galactosylceramide (d18:1/24:1) Fold Change (cortex, AD+31/AD, p-value 0.0443): 1.08
- 1-oleoylglycerol (18:1) Fold Change (cortex, AD+31/AD, p-value 0.0513): 1.46
- 1-stearoyl-GPG (18:0) Fold Change (cortex, AD+31/AD, p-value 0.055): 1.87
- N-acetylglutamate Fold Change (cortex, AD+31/AD, p-value 0.0559): 0.92
- linoleoyl ethanolamide Fold Change (cortex, AD+31/AD, p-value 0.0645): 1.62
- N-acetylglucosaminylasparagine Fold Change (cortex, AD+31/AD, p-value 0.0691): 0.92
- tricosenoate (23:1) Fold Change (cortex, AD+31/AD, p-value 0.0711): 1.54
- 2'-deoxycytidine Fold Change (cortex, AD+31/AD, p-value 0.088): 0.85
- nonadecanoate (19:0) Fold Change (cortex, AD+31/AD, p-value 0.0981): 1.35
- palmitate (16:0) Fold Change (cortex, AD+31/AD, p-value 0.1021): 1.36
- erucate (22:1n9) Fold Change (cortex, AD+31/AD, p-value 0.1047): 1.44
- 5-methylthioadenosine (MTA) Fold Change (cortex, AD+31/AD, p-value 0.1124): 1.12
- stearate (18:0) Fold Change (cortex, AD+31/AD, p-value 0.1164): 1.35
- eicosenoate (20:1) Fold Change (cortex, AD+31/AD, p-value 0.1281): 1.43
- oleate/vaccenate (18:1) Fold Change (cortex, AD+31/AD, p-value 0.1397): 1.39
- adrenate (22:4n6) Fold Change (cortex, AD+31/AD, p-value 0.1408): 1.56
- 1-oleoyl-2-linoleoyl-GPC (18:1/18:2)* Fold Change (cortex, AD+31/AD, p-value 0.1443): 1.12
- glutamate, gamma-methyl ester Fold Change (cortex, AD+31/AD, p-value 0.157): 0.73
- docosadienoate (22:2n6) Fold Change (cortex, AD+31/AD, p-value 0.1608): 1.38
- beta-citrylglutamate Fold Change (cortex, AD+31/AD, p-value 0.1678): 1.19
- methylphosphate Fold Change (cortex, AD+31/AD, p-value 0.1679): 1.13
- pyroglutamine* Fold Change (cortex, AD+31/AD, p-value 0.1791): 1.11
- glycerophosphoglycerol Fold Change (cortex, AD+31/AD, p-value 0.1865): 0.93
- dihomo-linoleate (20:2n6) Fold Change (cortex, AD+31/AD, p-value 0.1892): 1.35
- docosatrienoate (22:3n3) Fold Change (cortex, AD+31/AD, p-value 0.1893): 1.69
- arabinose Fold Change (cortex, AD+31/AD, p-value 0.2015): 0.93
- UDP-glucose Fold Change (cortex, AD+31/AD, p-value 0.209): 1.28
- UDP-N-acetylglucosamine/galactosamine Fold Change (cortex, AD+31/AD, p-value 0.2104): 0.95
- 1-palmitoyl-2-gamma-linolenoyl-GPC (16:0/18:3n6)* Fold Change (cortex, AD+31/AD, p-value 0.213): 0.91
- 1-arachidonylglycerol (20:4) Fold Change (cortex, AD+31/AD, p-value 0.2257): 1.2
- hippurate Fold Change (cortex, AD+31/AD, p-value 0.2339): 1.5
- mead acid (20:3n9) Fold Change (cortex, AD+31/AD, p-value 0.2367): 1.39
- 2-hydroxydecanoate Fold Change (cortex, AD+31/AD, p-value 0.2531): 0.84
- glycerol 3-phosphate Fold Change (cortex, AD+31/AD, p-value 0.2532): 0.91
- 10-nonadecenoate (19:1n9) Fold Change (cortex, AD+31/AD, p-value 0.2636): 1.26
- methionine Fold Change (cortex, AD+31/AD, p-value 0.2665): 1.1
- 1-docosahexaenoylglycerol (22:6) Fold Change (cortex, AD+31/AD, p-value 0.2822): 1.21
- 3-hydroxy-3-methylglutarate Fold Change (cortex, AD+31/AD, p-value 0.2908): 0.95
- anserine Fold Change (cortex, AD+31/AD, p-value 0.2924): 1.14
- N-formylmethionine Fold Change (cortex, AD+31/AD, p-value 0.3078): 0.94
- 3-hydroxybutyrylcarnitine (2) Fold Change (cortex, AD+31/AD, p-value 0.3124): 1.37
- acetylphosphate Fold Change (cortex, AD+31/AD, p-value 0.3359): 0.91
- 1-methylimidazoleacetate Fold Change (cortex, AD+31/AD, p-value 0.3448): 0.9
- N-acetylmethionine Fold Change (cortex, AD+31/AD, p-value 0.3576): 0.96
- arachidonoyl ethanolamide Fold Change (cortex, AD+31/AD, p-value 0.3632): 1.06
- deoxycarnitine Fold Change (cortex, AD+31/AD, p-value 0.3877): 0.94
- palmitoylcholine Fold Change (cortex, AD+31/AD, p-value 0.42): 1.09
- putrescine Fold Change (cortex, AD+31/AD, p-value 0.4207): 1.08
- adenosine 5'-diphosphoribose (ADP-ribose) Fold Change (cortex, AD+31/AD, p-value 0.4258): 0.94
- margarate (17:0) Fold Change (cortex, AD+31/AD, p-value 0.4323): 1.24
- phenol sulfate Fold Change (cortex, AD+31/AD, p-value 0.4423): 1.28
- acetylcarnitine Fold Change (cortex, AD+31/AD, p-value 0.4578): 1.25
- lactate Fold Change (cortex, AD+31/AD, p-value 0.4961): 1.08
- acetyl CoA Fold Change (cortex, AD+31/AD, p-value 0.4998): 1.33
- 3-hydroxybutyrate (BHBA) Fold Change (cortex, AD+31/AD, p-value 0.5074): 1.29
- 2-hydroxystearate Fold Change (cortex, AD+31/AD, p-value 0.5156): 1.2
- gamma-glutamylhistidine Fold Change (cortex, AD+31/AD, p-value 0.5232): 0.9
- gulonate* Fold Change (cortex, AD+31/AD, p-value 0.5547): 0.96
- 1-oleoyl-2-arachidonoyl-GPI (18:1/20:4) * Fold Change (cortex, AD+31/AD, p-value 0.5635): 1.02
- 6-phosphogluconate Fold Change (cortex, AD+31/AD, p-value 0.6142): 0.86
- adenosine 2'-monophosphate (2'-AMP) Fold Change (cortex, AD+31/AD, p-value 0.6144): 1.09
- glucosamine-6-phosphate Fold Change (cortex, AD+31/AD, p-value 0.6542): 1.06
- 1-palmitoyl-2-palmitoleoyl-GPC (16:0/16:1)* Fold Change (cortex, AD+31/AD, p-value 0.6549): 0.98
- 1-(1-enyl-stearoyl)-2-arachidonoyl-GPE (P-18:0/20:4)* Fold Change (cortex, AD+31/AD, p-value 0.6588): 1.01
- mannose Fold Change (cortex, AD+31/AD, p-value 0.6613): 0.9
- UDP-galactose Fold Change (cortex, AD+31/AD, p-value 0.6737): 1.03
- phosphoethanolamine Fold Change (cortex, AD+31/AD, p-value 0.6749): 0.98
- sphingomyelin (d18:1/18:1, d18:2/18:0) Fold Change (cortex, AD+31/AD, p-value 0.6798): 1.03
- sedoheptulose-7-phosphate Fold Change (cortex, AD+31/AD, p-value 0.7025): 0.98
- 1-stearoyl-GPC (18:0) Fold Change (cortex, AD+31/AD, p-value 0.7211): 0.94
- 1-palmitoyl-2-oleoyl-GPS (16:0/18:1) Fold Change (cortex, AD+31/AD, p-value 0.7273): 1.01
- glucose 6-phosphate Fold Change (cortex, AD+31/AD, p-value 0.7454): 0.99
- prolylglycine Fold Change (cortex, AD+31/AD, p-value 0.7821): 0.99
- glycerophosphoethanolamine Fold Change (cortex, AD+31/AD, p-value 0.7927): 1.02
- succinylcarnitine Fold Change (cortex, AD+31/AD, p-value 0.8024): 0.95
- glutamate Fold Change (cortex, AD+31/AD, p-value 0.8146): 0.99
- N-acetyl-glucosamine 1-phosphate Fold Change (cortex, AD+31/AD, p-value 0.868): 0.98
- O-methyltyrosine Fold Change (cortex, AD+31/AD, p-value 0.8778): 0.98
- galactose 1-phosphate Fold Change (cortex, AD+31/AD, p-value 0.8947): 1.05
- 17-methylstearate Fold Change (cortex, AD+31/AD, p-value 0.9061): 1
- 1-stearoyl-2-oleoyl-GPI (18:0/18:1)* Fold Change (cortex, AD+31/AD, p-value 0.9089): 1
- lysine Fold Change (cortex, AD+31/AD, p-value 0.9193): 1
- fructose-6-phosphate Fold Change (cortex, AD+31/AD, p-value 0.9322): 1.01
- coenzyme A Fold Change (cortex, AD+31/AD, p-value 0.937): 1.03
- oleoyl-oleoyl-glycerol (18:1/18:1) [2]* Fold Change (cortex, AD+31/AD, p-value 0.9411): 1
